This is an account of results in publication PMC7587356, “High-Throughput Screening for Inhibitors of the SARS-CoV-2 Protease Using a FRET-Biosensor” (Molecules, 2020).

Where a name gives a salt, the structure may show the parent alone. Read-outs that look alike come from different tables or passages of the source.

The target in the test is SARS-CoV-2 3CLpro (Severe acute respiratory syndrome coronavirus 2, UniProt P0DTD1). The experiment in a line: biochemical. It is filed as biochemical. The arrangement: Replicate_1 / Replicate_2 / mean / mean (LOPAC_screen_w_protease): unit not given here. As to conditions: for inhibition at 5 µM: 4 h.
The mark [1] stands for this setting: sheet LOPAC_screen_w_protease, primary screen with protease, compound at 5 µM, mean of two replicates, read-out: mean.
The mark [2] stands for this setting: sheet LOPAC_screen_w_protease, primary screen with protease, compound at 5 µM, replicate 1, read-out: Replicate_1.
Setting [3] is: sheet LOPAC_screen_w_protease, primary screen with protease, compound at 5 µM, replicate 2, read-out: Replicate_2.
[4] abbreviates: sheet LOPAC_screen_w_protease, LOPAC1280 primary screen at 5 µM, with protease, mean of the two replicates.
Setting [5] is: sheet LOPAC_screen_w_protease, LOPAC1280 primary screen at 5 µM, with protease, replicate 1.
Where [6] appears, read: sheet LOPAC_screen_w_protease, LOPAC1280 primary screen at 5 µM, with protease, replicate 2.
[7] abbreviates: sheet LOPAC_screen_w_protease, primary screen of LOPAC1280 at 5 µM with protease, mean of the two replicates.
The mark [8] stands for this setting: sheet LOPAC_screen_w_protease, primary screen of LOPAC1280 at 5 µM with protease, replicate 1.
The mark [9] stands for this setting: sheet LOPAC_screen_w_protease, primary screen of LOPAC1280 at 5 µM with protease, replicate 2.
The mark [10] stands for this setting: sheet LOPAC_screen_w_protease, LOPAC1280 at 5 µM, mean of two replicates.
[11] abbreviates: sheet LOPAC_screen_w_protease, LOPAC1280 at 5 µM, replicate 1.
Setting [12] is: sheet LOPAC_screen_w_protease, LOPAC1280 at 5 µM, replicate 2.
Where [13] appears, read: sheet LOPAC_screen_w_protease, primary screen with protease, mean of two replicates.
[14] abbreviates: sheet LOPAC_screen_w_protease, primary screen with protease, replicate 1.
Setting [15] is: sheet LOPAC_screen_w_protease, primary screen with protease, replicate 2.
Where [16] appears, read: LOPAC1280 primary screen with protease, 5 µM compound, replicate 1, read-out: Replicate_1 (LOPAC_screen_w_protease).
[17] abbreviates: LOPAC1280 primary screen with protease, 5 µM compound, replicate 2, read-out: Replicate_2 (LOPAC_screen_w_protease).
Where [18] appears, read: LOPAC1280 primary screen with protease, 5 µM compound, mean of the two replicates.
Setting [19] is: sheet LOPAC_screen_w_protease, primary screen with protease, compound at 5 µM, mean of two replicates.
The mark [20] stands for this setting: sheet LOPAC_screen_w_protease, primary screen with protease, compound at 5 µM, replicate 1.
Where [21] appears, read: sheet LOPAC_screen_w_protease, primary screen with protease, compound at 5 µM, replicate 2.

For `COc1cccc(OC)c1OCCNCC1CSc2ccccc2O1` (stereo not drawn) [Benoxathian hydrochloride], the inhibition at 5 µM is, setting by setting: under setting [1], 2.7%; under setting [2], 1.96%; under setting [3], 3.44%.
Take `C=C[C@@]1(C)CC(=O)[C@]2(O)[C@@]3(C)[C@@H](O)CCC(C)(C)[C@@H]3[C@H](O)[C@H](OC(C)=O)[C@@]2(C)O1` [Forskolin]: the inhibition at 5 µM runs as follows: (sheet LOPAC_screen_w_protease, LOPAC1280 at 5 µM, mean of two replicates, read-out: mean) 1.29%; (sheet LOPAC_screen_w_protease, LOPAC1280 at 5 µM, replicate 1, read-out: Replicate_1) 1.85%; (sheet LOPAC_screen_w_protease, LOPAC1280 at 5 µM, replicate 2, read-out: Replicate_2) 0.734%.
Regarding `Cl.NCC#Cc1ccccc1` [3-Phenylpropargylamine hydrochloride], the mean under setting [4] amounted to 0.744. The molecule also gave a Replicate_1 under setting [5] of 1.313. The same molecule showed a Replicate_2 under setting [6] of 0.1753.
As for `CC1(C)CCC(NC(=O)[C@@H](N)CCC(=O)O)CC1` [CR 2249], the inhibition at 5 µM is, setting by setting: (sheet LOPAC_screen_w_protease, LOPAC1280 primary screen with protease, 5 µM compound, mean of the two replicates, read-out: mean) 5.2%; (sheet LOPAC_screen_w_protease, LOPAC1280 primary screen with protease, 5 µM compound, replicate 1, read-out: Replicate_1) 4.44%; (sheet LOPAC_screen_w_protease, LOPAC1280 primary screen with protease, 5 µM compound, replicate 2, read-out: Replicate_2) 5.96%.
For the molecule `CC(=O)O[C@]1(C(C)=O)CC[C@H]2[C@@H]3C=C(Cl)C4=CC(=O)[C@@H]5C[C@@H]5[C@]4(C)[C@H]3CC[C@@]21C` [Cyproterone acetate], the inhibition at 5 µM reads like this: (sheet LOPAC_screen_w_protease, primary screen with protease, 5 µM, mean of two replicates, read-out: mean) -0.427%; (sheet LOPAC_screen_w_protease, primary screen with protease, 5 µM, replicate 1, read-out: Replicate_1) 1.58%; (sheet LOPAC_screen_w_protease, primary screen with protease, 5 µM, replicate 2, read-out: Replicate_2) -2.43%.
On to `CNC(=O)[C@H]1O[C@@H](n2cnc3c(N)ncnc32)[C@H](O)[C@@H]1O` [5'-N-Methyl carboxamidoadenosine], for which the mean under setting [7] amounted to 3.814. Under setting [8], this molecule yielded a Replicate_1 of 3.632. This molecule also showed a Replicate_2 under setting [9] of 3.996.
For `O=c1[nH]c(=O)n([C@H]2C[C@H](O)[C@@H](CO)O2)cc1/C=C/Br` [(E)-5-(2-Bromovinyl)-2'-deoxyuridine], the mean under setting [7] is on record as 3.159. The molecule further had a Replicate_1 under setting [8] of 2.158. For the same molecule, the Replicate_2 under setting [9] is reported as 4.161.
As for `CCCCNc1cc(C(=O)O)cc(S(N)(=O)=O)c1Oc1ccccc1` [Bumetanide], the inhibition at 5 µM by setting is: (read-out: Replicate_1) -0.596%; (read-out: Replicate_2) 1.11%; (read-out: mean) 0.258%.
Under setting [10], `CCOC(=O)c1ncn2c1[C@@H]1CCCN1C(=O)c1cc(OC)ccc1-2` [L-655,708] returned a mean of 1.109. The same molecule showed a Replicate_1 under setting [11] of 1.0635. The same molecule displayed a Replicate_2 under setting [12] of 1.155.
For `Cl.N=C(N)NN` [Aminoguanidine hydrochloride], under setting [13], the mean worked out at 2.381. Moreover, under setting [14], the Replicate_1 is 2.212. This molecule returned a Replicate_2 under setting [15] of 2.55.
For `CN1[C@@H](CC(=O)c2ccccc2)CCC[C@H]1C[C@H](O)c1ccccc1.Cl` [alpha-Lobeline hydrochloride], under setting [10], the mean worked out at 1.292. This molecule came in with a Replicate_1 under setting [11] of 1.696. In addition, the Replicate_2 under setting [12] was found to be 0.8887.
For `COc1cc(CNC(=O)CCCCCCC(C)C)ccc1O` [Dihydrocapsaicin], the inhibition at 5 µM was determined as 3.14% under setting [1], 4.91% under setting [2] and 1.38% under setting [3].
`Cn1cnc2c1c(=O)[nH]c(=O)n2C` [Theobromine]: the inhibition at 5 µM came out at 3.53% (sheet LOPAC_screen_w_protease, primary screen of LOPAC1280 at 5 µM with protease, mean of the two replicates, read-out: mean); 4.5% (sheet LOPAC_screen_w_protease, primary screen of LOPAC1280 at 5 µM with protease, replicate 1, read-out: Replicate_1); 2.55% (sheet LOPAC_screen_w_protease, primary screen of LOPAC1280 at 5 µM with protease, replicate 2, read-out: Replicate_2).
Turning to `Nc1nc2ccc(OC(F)(F)F)cc2s1` [Riluzole], the inhibition at 5 µM is 2.44% under setting [16] and 0.68% under setting [17]. In addition, the “mean (LOPAC_screen_w_protease)” value (LOPAC1280 primary screen with protease, 5 µM compound, mean of two replicates) was 1.558.
`CCCN(CC1CC1)c1nc(C)nc(Nc2c(Cl)cc(Cl)cc2Cl)c1Cl` [NBI 27914] came in with a mean under setting [13] of 2.264. In addition, the Replicate_1 under setting [14] amounted to 4.203. For the same molecule, the Replicate_2 under setting [15] is given as 0.3255.
As for “Phenylbenzene-omega-phosphono-alpha-amino acid”, the mean under setting [4] turned out to be 0.7227. The same molecule yielded a Replicate_1 under setting [5] of 0.6047. Under setting [6], this molecule showed a Replicate_2 of 0.8406.
For the molecule `CNc1ccc2oc(C[C@H]3O[C@@]4(CC[C@H]3C)O[C@H]([C@H](C)C(=O)c3ccc[nH]3)[C@H](C)C[C@H]4C)nc2c1C(=O)O` [Calcimycin], the inhibition at 5 µM was determined as 3.09% under setting [1], 2.08% under setting [2] and 4.1% under setting [3].
For the molecule `NCCCCCCCCCCN` [1,10-Diaminodecane], the inhibition at 5 µM by setting is: (sheet LOPAC_screen_w_protease, primary screen with protease, mean of two replicates, read-out: mean) 2.36%; (sheet LOPAC_screen_w_protease, primary screen with protease, replicate 1, read-out: Replicate_1) 3.01%; (sheet LOPAC_screen_w_protease, primary screen with protease, replicate 2, read-out: Replicate_2) 1.71%.
For `N#CC(C#N)=Cc1ccc([N+](=O)[O-])c(O)c1` [Tyrphostin AG 126], the mean under setting [13] came to 2.288. This molecule gave a Replicate_1 under setting [14] of 2.273. Under setting [15], this molecule returned a Replicate_2 of 2.303.
Regarding `OCCN1CCN(CCCN2c3ccccc3Sc3ccc(C(F)(F)F)cc32)CC1` [Fluphenazine dihydrochloride], the inhibition at 5 µM under setting [16] stood at 4.18% and the inhibition at 5 µM under setting [17] was -0.136%. The “mean (LOPAC_screen_w_protease)” value under setting [18] is 2.023.
In turn, `Cl.Fc1ccc(C(OCCCc2c[nH]cn2)c2ccc(F)cc2)cc1` came in with a mean under setting [19] of 2.8. For the same molecule, the Replicate_1 under setting [20] came to 1.774. Moreover, under setting [21], the Replicate_2 came out at 3.825.
S-Nitroso-N-acetylpenicillamine came in with a mean (sheet LOPAC_screen_w_protease, LOPAC1280 primary screen with protease, 5 µM compound, mean of the two replicates) of 5.369. Besides, the Replicate_1 (sheet LOPAC_screen_w_protease, LOPAC1280 primary screen with protease, 5 µM compound, replicate 1) is given as 5.411. Moreover, the Replicate_2 (sheet LOPAC_screen_w_protease, LOPAC1280 primary screen with protease, 5 µM compound, replicate 2) was found to be 5.326.
For the molecule `CC[N+](CC)(CC)CCOc1ccc(/C=C/c2ccccc2)cc1` [MG 624], the inhibition at 5 µM (sheet LOPAC_screen_w_protease, primary screen at 5 µM, mean of two replicates, read-out: mean (LOPAC screen with protease)) came out at 11.8%; the inhibition at 5 µM (sheet LOPAC_screen_w_protease, primary screen at 5 µM, replicate 1, read-out: Replicate_1 (LOPAC screen with protease)) came out at 10.3%; the inhibition at 5 µM (sheet LOPAC_screen_w_protease, primary screen at 5 µM, replicate 2, read-out: Replicate_2 (LOPAC screen with protease)) came out at 13.3%.
Take `Cl.Nc1c2c(nc3ccccc13)CCCC2`: the Replicate_1 is recorded as 1.645, the Replicate_2 was 0.8036 and the mean is 1.2241.
`O=C(O)/C=C\C(=O)O.c1cnc(N2CCN(Cc3ccc4c(c3)OCO4)CC2)nc1` [Piribedil maleate] showed a mean under setting [4] of 0.4342. Also, the Replicate_1 under setting [5] was -0.05723. The Replicate_2 under setting [6] came to 0.9256.
In turn, `Cl.Clc1cc(I)cc(Cl)c1NC1=NCCN1` [p-Iodoclonidine hydrochloride] had a mean under setting [13] of 2.258. This molecule had a Replicate_1 under setting [14] of 3.3723. This molecule also returned a Replicate_2 under setting [15] of 1.143.
As to `C[N+]1(C)CCN(c2ccccc2)CC1.[I-]`, the “mean (LOPAC screen with protease)” value (sheet LOPAC_screen_w_protease, primary screen at 5 µM, mean of two replicates) is recorded as 7.007. Further, the “Replicate_1 (LOPAC screen with protease)” value (sheet LOPAC_screen_w_protease, primary screen at 5 µM, replicate 1) turned out to be 5.351. In addition, where the note is “sheet LOPAC_screen_w_protease, primary screen at 5 µM, replicate 2”, the “Replicate_2 (LOPAC screen with protease)” value came to 8.6627.
Turning to `C[N+](C)(C)CCOP(=O)([O-])OP(=O)([O-])OC[C@H]1O[C@@H](n2ccc(N)nc2=O)[C@H](O)[C@@H]1O.[Na+]` [Citicoline sodium], the “mean (LOPAC_screen_w_protease)” value under setting [18] is listed as 2.039. Also, the “Replicate_1 (LOPAC_screen_w_protease)” value (LOPAC1280 primary screen with protease, 5 µM compound, replicate 1) is reported as 0.6867. For the same molecule, where the note is “LOPAC1280 primary screen with protease, 5 µM compound, replicate 2”, the “Replicate_2 (LOPAC_screen_w_protease)” value is reported as 3.392.
For `CCN1CCc2nc(N)oc2CC1.Cl.Cl` [B-HT 933 dihydrochloride], under setting [19], the mean was 2.82. Under setting [20], this molecule came in with a Replicate_1 of 2.163. In addition, the Replicate_2 under setting [21] stood at 3.476.
